One assay has as its system St. pyogenes CN10. Put plainly: Minimum inhibitory concentration in vitro, St. pyogenes CN10. The class given is cell-based. The conditions noted are these: Streptococcus pyogenes, read-out: Minimum Inhibitory Concentrations.
The test system of a further assay is St. faecalis CN478. The assay is described as follows: Minimum inhibitory concentration in vitro, St. faecalis CN478. The class given is cell-based. The conditions noted are these: Enterococcus faecalis, read-out: Minimum Inhibitory Concentrations.
Another assay concerns St. agalactiae CN1143. Put plainly: Minimum inhibitory concentration in vitro, St. agalactiae CN1143. It is filed as cell-based. The conditions noted are these: Streptococcus agalactiae, read-out: Minimum Inhibitory Concentrations.
The next assay concerns Staph. aureus CN491. The assay is described as follows: Minimum inhibitory concentration in vitro, Staph. aureus CN491. It is filed as cell-based. The following applies: Staphylococcus aureus, read-out: Minimum Inhibitory Concentrations.
For the next assay, the system named is Esch. coli CN314. Put plainly: Minimum inhibitory concentration in vitro, Esch. coli CN314. The class given is cell-based. The following applies: Escherichia coli, read-out: Minimum Inhibitory Concentrations.
The next assay has as its system N. gonorrhoeae. The assay is described as follows: Minimum inhibitory concentration in vitro, N. gonorrhoeae. The class given is cell-based. The following applies: Neisseria gonorrhoeae, mean of 17 strains, read-out: Minimum Inhibitory Concentrations.
In a further assay the test system is B. fragilis. Put plainly: Minimum inhibitory concentration in vitro, B. fragilis. It is filed as cell-based. The following applies: Bacteroides fragilis, mean of 3 Strains, read-out: Minimum Inhibitory Concentrations.
The next assay has as its system bacterial. The conditions noted are these: amongst the 2,4-diamino-5-benzylpyrimidines known to date; cited from earlier work.

Values after ≈ are worked out from the molar mass of the structure shown.

As to `COc1cc(Cc2cnc(N)nc2N)c2c(C)c(C)oc2c1OC` [Compound 1, 2,4-Diamino-5-(6,7-dimethoxy-2,3-dimethyl-4-benzofuranylmethyl)pyrimidine], the MIC in the assay with St. pyogenes CN10 turned out to be 5 µg/mL (≈ 15.2 µM); with St. faecalis CN478, 0.5 µg/mL (≈ 1.52 µM); in the assay on St. agalactiae CN1143, 5 µg/mL (≈ 15.2 µM); in the assay with Staph. aureus CN491 it was 0.5 µg/mL (≈ 1.52 µM); with Esch. coli CN314, 0.5 µg/mL (≈ 1.52 µM); with N. gonorrhoeae it was 25 µg/mL (≈ 76.1 µM). The MIC with B. fragilis is 25 µg/mL (≈ 76.1 µM).
Regarding `COc1cc(Cc2cnc(N)nc2N)c2cc(C)oc2c1OC` [Compound 3, 2,4-Diamino-5-(6,7-dimethoxy-2-methyl-4-benzofuranylmethyl)pyrimidine], the MIC worked out at 0.05 µg/mL (≈ 0.159 µM) in the assay on St. pyogenes CN10; 0.05 µg/mL (≈ 0.159 µM) in the assay on St. faecalis CN478; 0.05 µg/mL (≈ 0.159 µM) with St. agalactiae CN1143; 0.05 µg/mL (≈ 0.159 µM) in the assay with Staph. aureus CN491; 0.5 µg/mL (≈ 1.59 µM) with Esch. coli CN314; 2.8 µg/mL (≈ 8.91 µM) in the assay on N. gonorrhoeae. Further, the MIC in the assay with B. fragilis came out at 0.6 µg/mL (≈ 1.91 µM).
As to `COc1cc(Cc2cnc(N)nc2N)cc(OC)c1OC` [TMP, 2,4-Diamino-5-(3,4,5-trimethoxybenzyl)pyrimidine, reference compound], the MIC in the assay on St. pyogenes CN10 was determined as 0.5 µg/mL (≈ 1.72 µM); in the assay with St. faecalis CN478, 0.1 µg/mL (≈ 0.344 µM); with St. agalactiae CN1143, 0.5 µg/mL (≈ 1.72 µM); in the assay with Staph. aureus CN491, 0.5 µg/mL (≈ 1.72 µM); in the assay on Esch. coli CN314, 0.05 µg/mL (≈ 0.172 µM); in the assay with N. gonorrhoeae it was 40 µg/mL (≈ 138 µM). Also, the MIC in the assay with B. fragilis stood at 3.1 µg/mL (≈ 10.7 µM). In the assay with bacterial, the general antibacterial activity result is “most active general antibacterial agent”.
As to `COc1cc(Cc2cnc(N)nc2N)c2c(c1OC)OC(C)C2` (stereo not shown) [Compound 2, 2,4-Diamino-5-(2,3-dihydro-6,7-dimethoxy-2-methyl-4-benzofuranylmethyl)-pyrimidine], the MIC in the assay on St. pyogenes CN10 stood at 0.5 µg/mL (≈ 1.58 µM); in the assay on St. faecalis CN478, 0.05 µg/mL (≈ 0.158 µM); with St. agalactiae CN1143 it was 0.5 µg/mL (≈ 1.58 µM); in the assay on Staph. aureus CN491, 0.5 µg/mL (≈ 1.58 µM); with Esch. coli CN314, 0.5 µg/mL (≈ 1.58 µM); with B. fragilis it was 6.2 µg/mL (≈ 19.6 µM).

The values above are taken from patent US4590271A, “2,4-diamino-5-(substituted)pyrimidines, useful as antimicrobials” (Burroughs Wellcome Co., priority 1982, dated 1986).
